Source: patent US9814699B2, “Chemical compounds” (Janssen Pharmaceuticals, Inc., priority 2009, dated 2017)

Columns and labels:
[1] = tested on: HCV genotype 1a subgenomic replicon; test: HCV replicon assay, genotype 1a subgenomic replicon (luciferase); assay type: cell-based; conditions: Hepatitis C virus; genotype 1a replicon stable cell line, luciferase activity measured 48 hours later; read-out: Replicon 1A pEC50 (converted)
Procedure: (§1) Protocol for Testing and Data Analysis of Compounds in the HCV Replicon Assay
(§2) Compounds were assayed for activity against HCV using the genotype 1a and 1b subgenomic replicon model systems. Stable cell lines bearing the genotype 1a and 1b replicons were used for screening of compounds. Both replicons are bicistronic and contain the firefly luciferase gene. The ET cell line is stably transfected with RNA transcripts harboring a I389luc-ubi-neo/NS3-3′/ET replicon with firefly luciferase-ubiquitin-neomycin phosphotransferase fusion protein and EMCV-IRES driven NS3-5B polyprotein containing the cell culture adaptive mutations (E1202G; T1280I; K1846T) (Krieger at al, 2001 and unpublished). The genotype 1a replicon is a stable cell line licensed from Apath LLC, modified to contain the firefly luciferase gene. The cells were grown in DMEM, supplemented with 10% fetal calf serum, 2 mM Glutamine, Penicillin (100 IU/mL)/Streptomycin (100 μg/mL), 1× nonessential amino acids, and 250-500 μg/mL G418 (“Geneticin”). They were all available through Life Technologies (Bethesda, Md.). The cells were plated at 5×10^3 cells/well in 384 well plates containing compounds. The final concentration of compounds ranged between 0.03 pM to 50 μm and the final DMSO concentration of 0.5-1%.
(§3) Luciferase activity was measured 48 hours later by adding a Steady glo reagent (Promega, Madison, Wis.). Percent inhibition of replication data was plotted relative to no compound control. Under the same condition, cytotoxicity of the compounds was determined using cell titer glo (Promega, Madison, Ws). EC50s were determined from an 11 point dose response curve using 3-4-fold serial dilution for each compound, which spans a concentration range >1000 fold. The level of inhibition for each compound was determined with Activity Base or with BioAssay plus the Excel XC50 module. Percent inhibition was determined with the following equation where the cross-talk corrected value is the value from the test well, the compound positive control mean is the average value of the wells with no compound present, and the DMSO negative control mean is the average value of the wells with DMSO but no cells present.
(§4) [formula] These normalized values are exported to EC50 where they are plotted against the molar compound concentrations using the standard four parameter logistic equation: […]

[2] = tested on: HCV genotype 1b subgenomic replicon; test: HCV replicon assay, genotype 1b subgenomic replicon (ET cell line, luciferase); assay type: cell-based; conditions: Hepatitis C virus; genotype 1b replicon ET cell line, luciferase activity measured 48 hours later; read-out: Replicon 1B pEC50 (converted)
Procedure: as §1, §2, §3, §4

Compound | EC50 [1] | EC50 [2]
COC(=O)N[C@H](C(=O)N1CCC[C@H]1c1ncc(-c2ccc(-c3ccc(-c4cnc([C@@H]5CC6(CN5C(=O)[C@@H](NC(=O)OC)C(C)C)O[C@@H](C)C[C@H](C)O6)[nH]4)cc3)cc2)[nH]1)C(C)C (stereo partly drawn) [Example 1, methyl [(1S)-1-({(2S)-2-[4-(4′-{2-[(3S,7S,9S)-7,9-dimethyl-2-((2S)-3-methyl-2-{[(methyloxy)carbonyl]amino}butanoyl)-6,10-dioxa-2-azaspiro[4.5]dec-3-yl]-1H-imidazol-4-yl}-4-biphenylyl)-1H-imidazol-2-yl]-1-pyrrolidinyl}carbonyl)-2-methylpropyl]carbamate] | 1.58 nM | 10 pM
COC(=O)N[C@H](C(=O)N1CCC[C@H]1c1ncc(-c2ccc(-c3ccc(-c4cnc([C@@H]5CC6(CN5C(=O)[C@@H](NC(=O)OC)C(C)C)OCCO6)[nH]4)cc3)cc2)[nH]1)C(C)C [Example 2, methyl [(1S)-2-methyl-1-({(2S)-2-[4-(4′-{2-[(8S)-7-((2S)-3-methyl-2-{[(methyloxy)carbonyl]amino}butanoyl)-1,4-dioxa-7-azaspiro[4.4]non-8-yl]-1H-imidazol-4-yl}-4-biphenylyl)-1H-imidazol-2-yl]-1-pyrrolidinyl}carbonyl)propyl]carbamate] | 0.0398 nM | 7.94 pM
COC(=O)N[C@H](C(=O)N1CC2(C[C@H]1c1ncc(-c3ccc(-c4ccc(-c5cnc([C@@H]6CC7(CN6C(=O)[C@@H](NC(=O)OC)C(C)C)O[C@@H](C)C[C@H](C)O7)[nH]5)cc4)cc3)[nH]1)O[C@@H](C)C[C@H](C)O2)C(C)C (stereo partly drawn) [Example 3, dimethyl (4,4′-biphenyldiylbis{1H-imidazole-4,2-diyl[(3S,7S,9S)-7,9-dimethyl-6,10-dioxa-2-azaspiro[4.5]decane-3,2-diyl][(2S)-3-methyl-1-oxo-1,2-butanediyl]})biscarbamate] | 25.1 nM | 15.8 pM
COC(=O)N[C@H](C(=O)N1CC2(C[C@H]1c1ncc(-c3ccc(-c4ccc(-c5cnc([C@@H]6CC7(CN6C(=O)[C@@H](NC(=O)OC)C(C)C)OCCO7)[nH]5)cc4)cc3)[nH]1)OCCO2)C(C)C [Example 4, dimethyl (4,4′-biphenyldiylbis{1H-imidazole-4,2-diyl(8S)-1,4-dioxa-7-azaspiro[4.4]nonane-8,7-diyl[(2S)-3-methyl-1-oxo-1,2-butanediyl]})biscarbamate] | 0.0398 nM | 10 pM
COC(=O)N[C@@H](C)C(=O)N1CC2(C[C@H]1c1ncc(-c3ccc(-c4ccc(-c5cnc([C@@H]6CCCN6C(=O)[C@@H](NC(=O)OC)C(C)C)[nH]5)cc4)cc3)[nH]1)OCCCO2 [Example 5, methyl ((1S)-1-methyl-2-{(3S)-3-[4-(4′-{2-[(2S)-1-((2S)-3-methyl-2-{[(methyloxy)carbonyl]amino}butanoyl)-2-pyrrolidinyl]-1H-imidazol-4-yl}-4-biphenylyl)-1H-imidazol-2-yl]-6,10-dioxa-2-azaspiro[4.5]dec-2-yl}-2-oxoethyl)carbamate] | 0.0794 nM | 20 pM
COC(=O)N[C@H](C(=O)N1CCC[C@H]1c1ncc(-c2ccc(-c3ccc(-c4cnc([C@@H]5CC6(CN5C(=O)[C@@H](NC(=O)OC)C(C)C)OCCCO6)[nH]4)cc3)cc2)[nH]1)C(C)C [Example 6, methyl [(1S)-2-methyl-1-({(2S)-2-[4-(4′-{2-[(3S)-2-((2S)-3-methyl-2-{[(methyloxy)carbonyl]amino}butanoyl)-6,10-dioxa-2-azaspiro[4.5]dec-3-yl]-1H-imidazol-4-yl}-4-biphenylyl)-1H-imidazol-2-yl]-1-pyrrolidinyl}carbonyl)propyl]carbamate] | 0.0251 nM | 7.94 pM
COC(=O)N[C@H](C(=O)N1CCC[C@H]1c1ncc(-c2ccc(-c3ccc(-c4cnc([C@@H]5CC6(CN5C(=O)[C@@H](NC(=O)OC)C(C)C)OCC(C)(C)CO6)[nH]4)cc3)cc2)[nH]1)C(C)C [Example 7, methyl [(1S)-1-({(2S)-2-[4-(4′-{2-[(3S)-8,8-dimethyl-2-((2S)-3-methyl-2-{[(methyloxy)carbonyl]amino}butanoyl)-6,10-dioxa-2-azaspiro[4.5]dec-3-yl]-1H-imidazol-4-yl}-4-biphenylyl)-1H-imidazol-2-yl]-1-pyrrolidinyl}carbonyl)-2-methylpropyl]carbamate] | 0.794 nM | 2.51 pM
[2H]C1([2H])OC2(C[C@@H](c3ncc(-c4ccc(-c5ccc(-c6cnc([C@@H]7CCCN7C(=O)[C@@H](NC(=O)OC)C(C)C)[nH]6)cc5)cc4)[nH]3)N(C(=O)[C@@H](NC(=O)OC)C(C)C)C2)OC([2H])([2H])C1([2H])[2H] [Example 8, methyl [(1S)-2-methyl-1-({(2S)-2-[4-(4′-{2-[(3S)-2-((2S)-3-methyl-2-{[(methyloxy)carbonyl]amino}butanoyl)-6,10-dioxa-2-azaspiro[4.5]dec-3-yl]-1H-imidazol-4-yl}-4-biphenylyl)-1H-imidazol-2-yl]-1-pyrrolidinyl}carbonyl)propyl]carbamate-d6] | 0.0316 nM | 7.94 pM
[2H]C1([2H])OC2(C[C@@H](c3ncc(-c4ccc(-c5ccc(-c6cnc([C@@H]7CCCN7C(=O)[C@@H](NC(=O)OC)C(C)C)[nH]6)cc5)cc4)[nH]3)N(C(=O)[C@@H](NC(=O)OC)C(C)C)C2)OC1([2H])[2H] [Example 9, methyl [(1S)-2-methyl-1-({(2S)-2-[4-(4′-{2-[(8S)-7-((2S)-3-methyl-2-{[(methyloxy)carbonyl]amino}butanoyl)-1,4-dioxa-7-azaspiro[4.4]non-8-yl]-1H-imidazol-4-yl}-4-biphenylyl)-1H-imidazol-2-yl]-1-pyrrolidinyl}carbonyl)propyl]carbamate-d4] | 0.0316 nM | 6.31 pM
COC(=O)N[C@H](C(=O)N1CCC[C@H]1c1ncc(-c2ccc(-c3ccc(-c4cnc([C@@H]5CC6(CN5C(=O)[C@@H](NC(=O)OC)C(C)C)O[C@H](C)[C@@H](C)O6)[nH]4)cc3)cc2)[nH]1)C(C)C [Example 10, methyl [(1S)-1-({(2S)-2-[4-(4′-{2-[(2R,3R,8S)-2,3-dimethyl-7-((2S)-3-methyl-2-{[(methyloxy)carbonyl]amino}butanoyl)-1,4-dioxa-7-azaspiro[4.4]non-8-yl]-1H-imidazol-5-yl}-4-biphenylyl)-1H-imidazol-2-yl]-1-pyrrolidinyl}carbonyl)-2-methylpropyl]carbamate] | 2 nM | 10 pM
COC(=O)N[C@H](C(=O)N1CCC[C@H]1c1ncc(-c2ccc(-c3ccc(-c4cnc([C@@H]5CC6(CN5C(=O)[C@@H](NC(=O)OC)C(C)C)O[C@@H](C)[C@H](C)O6)[nH]4)cc3)cc2)[nH]1)C(C)C [Example 11, methyl [(1S)-1-({(2S)-2-[4-(4′-{2-[(2S,3S,8S)-2,3-dimethyl-7-((2S)-3-methyl-2-{[(methyloxy)carbonyl]amino}butanoyl)-1,4-dioxa-7-azaspiro[4.4]non-8-yl]-1H-imidazol-5-yl}-4-biphenylyl)-1H-imidazol-2-yl]-1-pyrrolidinyl}carbonyl)-2-methylpropyl]carbamate] | 1.26 nM | 10 pM
COC(=O)N[C@H](C(=O)N1CCC[C@H]1c1nc(-c2ccc(-c3ccc(-c4c[nH]c([C@@H]5CC6(CN5C(=O)[C@@H](NC(=O)OC)C(C)C)SCCS6)n4)cc3)cc2)c[nH]1)C(C)C [Example 12, methyl [(1S)-2-methyl-1-({(2S)-2-[4-(4′-{2-[(8S)-7-((2S)-3-methyl-2-{[(methyloxy)carbonyl]amino}butanoyl)-1,4-dithia-7-azaspiro[4.4]non-8-yl]-1H-imidazol-4-yl}-4-biphenylyl)-1H-imidazol-2-yl]-1-pyrrolidinyl}carbonyl)propyl]carbamate] | 0.0794 nM | 3.98 pM
CC[C@H](NC(=O)OC)C(=O)N1CC2(C[C@H]1c1nc(-c3ccc(-c4ccc(-c5c[nH]c([C@@H]6CCCN6C(=O)[C@@H](NC(=O)OC)C(C)C)n5)cc4)cc3)c[nH]1)SCCS2 [Example 13, methyl[(1S)-2-methyl-1-({(2S)-2-[4-(4′-{2-[(8S)-7-((2S)-2-{[(methyloxy)carbonyl]amino}butanoyl)-1,4-dithia-7-azaspiro[4.4]non-8-yl]-1H-imidazol-4-yl}-4-biphenylyl)-1H-imidazol-2-yl]-1-pyrrolidinyl}carbonyl)propyl]carbamate] | 0.0631 nM | 3.98 pM
COC(=O)NCC(=O)N1CC2(C[C@H]1c1ncc(-c3ccc(-c4ccc(-c5cnc([C@@H]6CCCN6C(=O)[C@@H](NC(=O)OC)C(C)C)[nH]5)cc4)cc3)[nH]1)SCCS2 [Example 14, methyl [(1S)-2-methyl-1-({(2S)-2-[4-(4′-{2-[(8S)-7-({[(methyloxy)carbonyl]amino}acetyl)-1,4-dithia-7-azaspiro[4.4]non-8-yl]-1H-imidazol-4-yl}-4-biphenylyl)-1H-imidazol-2-yl]-1-pyrrolidinyl}carbonyl)propyl]carbamate] | 0.631 nM | 5.01 pM
